Source: US12054721B2, “Compositions and methods for 3-hydroxypropionic acid production” (CARGILL, INCORPORATED, priority 2010, dated 2024)

Tested on: yeast cells
Test: EMS mutagenesis of yeast cells (kill rate)
Format: cell-based
Settings: 3 μL EMS in 200 μL cell suspension (OD600 around 10), approximately one hour
Protocol: For example, yeast cells from a fresh YP (yeast extract/peptone)+20 g/L glucose plate or liquid culture (OD600 1-4) are resuspended in sterile water to an OD600 of around 10. 200 μL aliquots of this cell suspension are pipetted into individual tubes and exposed to 3 μL […] (EMS) for approximately one hour, which kills around 65% of the cells. Higher EMS concentrations can also be used to increase the kill rate. After exposure, cells are neutralized with 5% sodium thiosulfate, washed in PBS buffer, recovered in rich media for approximately four hours, and cultured on selective media. Mock samples (no EMS) are also run to ensure that the conditions are selective. Alternatively, cells can be mutagenized using UV irradiation.

Q: `CCOS(C)(=O)=O` [ethane methyl sulfonate (EMS), ethane methyl sulfonate] was tested. Which cells killed did it give?
A: around 65%
